Patent US8530679B2, “Delta 9—tetrahydrocannabinol processing” (Resolution Chemicals Limited, priority 2007, dated 2013)

Assays:
[1] = cited from earlier work; for psychomimetic activity: constituents of cannabis
[2] = stability of Δ9-THC on handling and storage; conditions: solution prepared below room temperature, typically below 0° C., in some instances −40° C. and even −78° C.
[3] = susceptible to rearrangement and oxidation; cited from earlier work

| Compound | psychomimetic activity [1] | psychomimetic activity relative to Δ8-THC ([1]; greater than Δ8-THC) | stability / degradation in solution of low boiling point solvent [2] | stability at room temperature [3] |
| --- | --- | --- | --- | --- |
| C=C(C)[C@@H]1CCC(C)=C[C@H]1c1c(O)cc(CCCCC)cc1O [Cannabidiol] | little activity | – | – | – |
| CCCCCc1cc2c(c(O)c1C(=O)O)[C@@H]1C=C(C)CC[C@H]1C(C)(C)O2 [THCA-A, Δ9-THC carboxylic acid] | psychomimetically inactive | – | – | – |
| CCCCCc1cc(O)c2c(c1)OC(C)(C)[C@@H]1CCC(C)=C[C@@H]21 [Δ9-THC, Δ9-tetrahydrocannabinol] | – | 20 times | no significant degradation | relatively unstable |
